Where “and” joins values, the source holds several entries; their conditions need not be identical. Identical values can stand only once.
Conditions: for molar entropy: 101.33 kPa, Small (less than 1 g) adiabatic calorimetry

CC(C)[C@@H]1CC[C@@H](C)C[C@H]1O [L-menthol]
Conditions | Triple point temperature [K] | molar entropy [J/K/mol] | vapor or sublimation pressure
5 K, Crystal 1 | – | 0.2864 | –
10 K, Crystal 1 | – | 2.099 | –
15 K, Crystal 1 | – | 5.656 | –
20 K, Crystal 1 | – | 10.35 | –
25 K, Crystal 1 | – | 15.64 | –
30 K, Crystal 1 | – | 21.2 | –
35 K, Crystal 1 | – | 26.81 | –
40 K, Crystal 1 | – | 32.36 | –
45 K, Crystal 1 | – | 37.82 | –
50 K, Crystal 1 | – | 43.18 | –
55 K, Crystal 1 | – | 48.45 | –
60 K, Crystal 1 | – | 53.64 | –
65 K, Crystal 1 | – | 58.76 | –
70 K, Crystal 1 | – | 63.82 | –
75 K, Crystal 1 | – | 68.83 | –
80 K, Crystal 1 | – | 73.79 | –
85 K, Crystal 1 | – | 78.72 | –
90 K, Crystal 1 | – | 83.6 | –
95 K, Crystal 1 | – | 88.45 | –
100 K, Crystal 1 | – | 93.27 | –
105 K, Crystal 1 | – | 98.05 | –
110 K, Crystal 1 | – | 102.8 | –
115 K, Crystal 1 | – | 107.5 | –
120 K, Crystal 1 | – | 112.2 | –
125 K, Crystal 1 | – | 116.8 | –
130 K, Crystal 1 | – | 121.4 | –
135 K, Crystal 1 | – | 126 | –
140 K, Crystal 1 | – | 130.6 | –
145 K, Crystal 1 | – | 135.1 | –
150 K, Crystal 1 | – | 139.5 | –
155 K, Crystal 1 | – | 144 | –
160 K, Crystal 1 | – | 148.4 | –
165 K, Crystal 1 | – | 152.8 | –
170 K, Crystal 1 | – | 157.2 | –
175 K, Crystal 1 | – | 161.5 | –
180 K, Crystal 1 | – | 165.8 | –
185 K, Crystal 1 | – | 170.1 | –
190 K, Crystal 1 | – | 174.4 | –
195 K, Crystal 1 | – | 178.7 | –
200 K, Crystal 1 | – | 182.9 | –
205 K, Crystal 1 | – | 187.1 | –
210 K, Crystal 1 | – | 191.4 | –
215 K, Crystal 1 | – | 195.5 | –
220 K, Crystal 1 | – | 199.7 | –
225 K, Crystal 1 | – | 203.9 | –
230 K, Crystal 1 | – | 208.1 | –
235 K, Crystal 1 | – | 212.2 | –
240 K, Crystal 1 | – | 216.3 | –
245 K, Crystal 1 | – | 220.5 | –
250 K, Crystal 1 | – | 224.6 | –
255 K, Crystal 1 | – | 228.7 | –
260 K, Crystal 1 | – | 232.9 | –
265 K, Crystal 1 | – | 237 | –
270 K, Crystal 1 | – | 241.2 | –
273.64 K, Crystal 1, Closed cell (Static) method | – | – | 0.000244 kPa
273.65 K, Crystal 1, Closed cell (Static) method | – | – | 0.000244 kPa and 0.000242 kPa
275 K, Crystal 1 | – | 245.3 | –
277.38 K, Crystal 1, Closed cell (Static) method | – | – | 0.000399 kPa
277.41 K, Crystal 1, Closed cell (Static) method | – | – | 0.000401 kPa
277.5 K, Crystal 1, Closed cell (Static) method | – | – | 0.000403 kPa
278.15 K, Crystal 1, Closed cell (Static) method | – | – | 0.000441 kPa and 0.00044 kPa
278.16 K, Crystal 1, Closed cell (Static) method | – | – | 0.00044 kPa
280 K, Crystal 1 | – | 249.5 | –
282.34 K, Crystal 1, Closed cell (Static) method | – | – | 0.000758 kPa and 0.000756 kPa and 0.000759 kPa
283.15 K, Crystal 1, Closed cell (Static) method | – | – | 0.000839 kPa and 0.00084 kPa
285 K, Crystal 1 | – | 253.6 | –
286.97 K, Crystal 1, Closed cell (Static) method | – | – | 0.001352 kPa and 0.001354 kPa
286.98 K, Crystal 1, Closed cell (Static) method | – | – | 0.001355 kPa
288.15 K, Crystal 1, Closed cell (Static) method | – | – | 0.001557 kPa and 0.001559 kPa
288.16 K, Crystal 1, Closed cell (Static) method | – | – | 0.001558 kPa
290 K, Crystal 1 | – | 257.8 | –
291.56 K, Crystal 1, Closed cell (Static) method | – | – | 0.002353 kPa
291.57 K, Crystal 1, Closed cell (Static) method | – | – | 0.002354 kPa
291.6 K, Crystal 1, Closed cell (Static) method | – | – | 0.002364 kPa
293.14 K, Crystal 1, Closed cell (Static) method | – | – | 0.002829 kPa and 0.002828 kPa and 0.002831 kPa
295 K, Crystal 1 | – | 261.9 | –
296.23 K, Crystal 1, Closed cell (Static) method | – | – | 0.004057 kPa and 0.004052 kPa
296.25 K, Crystal 1, Closed cell (Static) method | – | – | 0.004063 kPa
298.15 K, Crystal 1 | – | 264.6 | –
298.15 K, Crystal 1, Closed cell (Static) method | – | – | 0.005047 kPa and 0.005039 kPa and 0.005033 kPa
300 K, Crystal 1 | – | 266.1 | –
300.84 K, Crystal 1, Closed cell (Static) method | – | – | 0.006809 kPa
300.85 K, Crystal 1, Closed cell (Static) method | – | – | 0.006831 kPa
300.86 K, Crystal 1, Closed cell (Static) method | – | – | 0.006832 kPa
303 K, Metastable liquid | – | – | 0.01038 kPa and 0.01037 kPa
303.14 K, Crystal 1, Closed cell (Static) method | – | – | 0.008771 kPa and 0.008757 kPa and 0.008761 kPa
305 K, Crystal 1 | – | 270.4 | –
305.45 K, Crystal 1, Closed cell (Static) method | – | – | 0.01128 kPa
308.15 K, Crystal 1, Closed cell (Static) method | – | – | 0.01501 kPa and 0.015 kPa
308.15 K, Metastable liquid | – | – | 0.01672 kPa and 0.0167 kPa
308.18 K, Metastable liquid | – | – | 0.01676 kPa
308.19 K, Metastable liquid | – | – | 0.01678 kPa
308.2 K, Metastable liquid | – | – | 0.01678 kPa
310 K, Crystal 1 | – | 274.6 | –
310.04 K, Crystal 1, Closed cell (Static) method | – | – | 0.01833 kPa
310.07 K, Crystal 1, Closed cell (Static) method | – | – | 0.0184 kPa and 0.01842 kPa
313.38 K, Metastable liquid | – | – | 0.02657 kPa and 0.02658 kPa and 0.02656 kPa
314.67 K, Crystal 1, Closed cell (Static) method | – | – | 0.02949 kPa and 0.02946 kPa
315 K, Crystal 1 | – | 278.9 | –
315.6 K, Crystal 1 | – | 279.4 | –
315.6 K, Liquid | – | 322.1 | –
318.43 K, Liquid | – | – | 0.0408 kPa
318.46 K, Liquid | – | – | 0.04088 kPa
318.47 K, Liquid | – | – | 0.04094 kPa
320 K, Liquid | – | 327.3 | –
323.48 K, Liquid | – | – | 0.06146 kPa
323.5 K, Liquid | – | – | 0.06158 kPa
323.51 K, Liquid | – | – | 0.06164 kPa
325 K, Liquid | – | 333.3 | –
328.56 K, Liquid | – | – | 0.09137 kPa and 0.09138 kPa
330 K, Liquid | – | 339.4 | –
332.75 K, Liquid | – | – | 0.1252 kPa
335 K, Liquid | – | 345.4 | –
337.81 K, Liquid | – | – | 0.1804 kPa
337.82 K, Liquid | – | – | 0.1805 kPa
340 K, Liquid | – | 351.5 | –
342.89 K, Liquid | – | – | 0.2562 kPa and 0.2563 kPa
345 K, Liquid | – | 357.5 | –
347.88 K, Liquid | – | – | 0.3573 kPa
350 K, Liquid | – | 363.5 | –
352.88 K, Liquid | – | – | 0.4914 kPa
352.89 K, Liquid | – | – | 0.4914 kPa
355 K, Liquid | – | 369.6 | –
357.86 K, Liquid | – | – | 0.6662 kPa
357.87 K, Liquid | – | – | 0.6664 kPa
360 K, Liquid | – | 375.6 | –
362.82 K, Liquid | – | – | 0.8914 kPa
362.83 K, Liquid | – | – | 0.8915 kPa
365 K, Liquid | – | 381.5 | –
370 K, Liquid | – | 387.5 | –
Metastable crystal, DSC | 310 | – | –

Conditions | Triple point temperature [K]
Crystal 1, Adiabatic calorimetry | 315.6
Crystal 1, DSC | 315.4

Source: the NIST ThermoML archive (doi:10.1016/j.jct.2018.11.004)
